The values that follow come from PMC3062745 (International journal for parasitology, 2011).

Data set [1] deals with T1, human ARGI (HsARGI) (Homo sapiens, UniProt P05089).
T1 sequence (P05089 1-322): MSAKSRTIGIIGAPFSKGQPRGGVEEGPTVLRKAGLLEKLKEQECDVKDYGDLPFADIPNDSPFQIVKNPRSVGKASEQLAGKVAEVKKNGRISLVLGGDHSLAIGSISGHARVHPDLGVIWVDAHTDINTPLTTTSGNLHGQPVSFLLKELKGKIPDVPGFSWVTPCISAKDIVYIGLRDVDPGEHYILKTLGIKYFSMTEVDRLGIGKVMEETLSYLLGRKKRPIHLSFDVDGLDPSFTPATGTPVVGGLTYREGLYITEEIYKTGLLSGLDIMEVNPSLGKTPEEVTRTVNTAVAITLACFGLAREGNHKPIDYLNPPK
The experiment in a line: Inhibitor profile of recombinant HsARGI. As to conditions: for block of HsARGI activity (in words) / inhibition of HsARGI / selective inhibition: preference for HsARGI over LmARG: 40 mM compound; for block of HsARGI activity (in words) / inhibition of HsARGI: 40 mM L-arginine substrate; for selective inhibition: preference for HsARGI over LmARG: 40 mM L-arginine, comparison of the two enzymes; for inhibition at 40000 µM: read-out: inhibition of HsARGI. Type of data set: biochemical.

In data set [2] the target is T2, Leishmania mexicana arginase (LmARG) (Leishmania mexicana, UniProt Q6TUJ5). The experiment in a line: Inhibitor profile of recombinant LmARG. The class given is biochemical. As to conditions: for selective inhibition: preference for LmARG over HsARGI / block of LmARG activity (in words) / inhibition of LmARG: 40 mM compound; for selective inhibition: preference for LmARG over HsARGI: 40 mM L-arginine, comparison of the two enzymes; for Type of Inhibition: Dixon plot analysis, or assumed where Ki was calculated from panel data; for Ki: Dixon plot analysis; for inhibition: read-out: inhibition of LmARG; for block of LmARG activity (in words) / inhibition of LmARG: 40 mM L-arginine substrate.

Data set [3] has as its target T2, Leishmania mexicana arginase (LmARG). The experiment in a line: LmARG kinetic parameters and substrate specificity. As to conditions: 50 mM, no L-arginine, 30 min; data not shown.
Data set [4] concerns the target T1, human ARGI (HsARGI). The experiment in a line: HsARGI kinetic parameters and substrate specificity. Type of data set: biochemical. The note with it: 50 mM, no L-arginine, 30 min.
In the next data set the test system is L. major promastigotes. The note with it: read-out: EC50 against L. major promastigotes; ref Reguera et al., 2009; cited from earlier work.
The subject of data set [5] is Leishmania mexicana promastigotes. The experiment in a line: Parasite proliferation assay. The note with it: read-out: EC50 (concentration that inhibited growth by 50%); L. mexicana promastigotes, 5 days, alamarBlue; data not shown. The class given is cell-based. A general note: The colour change of resazurin is a common sign of viable cells or microbes.
For data set [6], the system named is intact L. major promastigotes. The note with it: ref Kropf et al., 2005; cited from earlier work.
The target of data set [7] is T2, Leishmania mexicana arginase (LmARG). Type of data set: biochemical. The note with it: co-activation with manganese and zinc; data not shown.
For the next data set, the system named is N=C(N)NCCC[C@H](N)C(=O)O. Description: purified protein, by the assay type. The note with it: other: non-linear regression, L-arginine 7.8 – 50 mM; pH 9.5; 37.0 °C.

Like-named read-outs stand apart in the source and are kept apart here.

As usually defined, the Ki is a measure of affinity in units of concentration, obtained from inhibition or displacement. In general, inhibition refers to the drop in the measured response relative to a control, in per cent. For `N[C@@H](CS)C(=O)O` [L-cysteine], the Ki on human ARGI (HsARGI) [1] was more than 30000 µM. In addition, in [2], the “selective inhibition: preference for LmARG over HsARGI” value (“selective inhibition … over HsARGI” below) is reported as “greater potency toward LmARG”, the “Type of Inhibition” value is recorded as “Competitive” and the inhibition was more than 50%. Further, the Ki in data set [2] (Ki vs. LmARG) turned out to be 11000 µM.

On to `NC(N)=NCCC[C@@H](N)C(=O)O` [D-arginine], for which the “activity as substrate of LmARG” value in [3] is recorded as “did not recognize”. For the same compound, on human ARGI (HsARGI) [4], the “activity as substrate of HsARGI” value was “no activity”.

For the compound `N=C(NO)NCCC[C@H](N)C(=O)O` [NOHA, N^ω-hydroxy-L-arginine], on human ARGI (HsARGI) [1], the “block of HsARGI activity (in words)” value is given as “completely blocked” and the “inhibition of HsARGI” value is recorded as more than 50%. Moreover, the EC50 in the data set with L. major promastigotes is 40 µM. Further, in data set [2], the “block of LmARG activity (in words)” value was “completely blocked”, the “inhibition of LmARG” value is reported as more than 50% and the “Type of Inhibition” value is on record as “Competitive”. The Ki in [2] (read-out: Ki vs. LmARG) stood at 85 µM. The EC50 in data set [5] was found to be 6000 µM.

As to `CC(C)C[C@H](N)C(=O)O` [L-leucine], at human ARGI (HsARGI) [1], the “selective inhibition: preference for HsARGI over LmARG” value (from here on “selective inhibition … over LmARG”) is reported as “preferentially inhibited the HsARGI activity” and the inhibition at 40000 µM is more than 50%.

As to `N=C(NO)NCC[C@H](N)C(=O)O` [nor-NOHA, N^ω-hydroxy-nor-L-arginine], at human ARGI (HsARGI) [1], the “block of HsARGI activity (in words)” value was “completely blocked” and the inhibition at 40000 µM is more than 50%. Also, in data set [2], the “block of LmARG activity (in words)” value is reported as “completely blocked”, the “Type of Inhibition” value is recorded as “Competitive” and the inhibition was more than 50%. Moreover, the “inhibition of conversion of arginine to ornithine by intact promastigotes” value in data set [6] is “does not inhibit”.

Consider `N[C@@H](CSCCB(O)O)C(=O)O` [BEC, S-(2-boronoethyl)-L-cysteine], for which, on human ARGI (HsARGI) [1], the inhibition constant Ki is 14 µM and the “block of HsARGI activity (in words)” value is given as “completely blocked”. Also, in [2], the “block of LmARG activity (in words)” value is listed as “completely blocked”, the “Type of Inhibition” value is reported as “Competitive” and the inhibition is more than 50%. Moreover, the inhibition constant (Ki) in data set [2] (Ki vs. LmARG) is approximately 10 µM.

Take `N[C@@H](CCC(=O)N[C@H]1CSSC[C@H](NC(=O)CC[C@H](N)C(=O)O)C(=O)NCC(=O)NCCCNCCCCNC(=O)CNC1=O)C(=O)O` [trypanothione]: at human ARGI (HsARGI) [1], the “inhibition of HsARGI” value is listed as more than 50% and the “selective inhibition … over LmARG” value was “preferentially inhibited the HsARGI activity”. Further, in data set [2], the “inhibition of LmARG” value is listed as more than 50% and the “Type of Inhibition” value is on record as “Uncompetitive”. In [2] (read-out: Ki vs. LmARG), the Ki was less than 5000 µM.

As for `NCCC[C@H](N)C(=O)O` [L-ornithine], on human ARGI (HsARGI) [1], the “selective inhibition … over LmARG” value is given as “preferentially inhibited the HsARGI activity” and the inhibition at 40000 µM is more than 50%.

For `NCCCCN=C(N)N` [agmatine], the “activity as substrate of LmARG” value in [3] is on record as “did not recognize”. On human ARGI (HsARGI) [4], the “activity as substrate of HsARGI” value is on record as “no activity”.

As to `[Cl-].[Cl-].[Zn+2]` [zinc, ZnCl2], the “LmARG activity on co-activation with manganese” value in data set [7] is “reduced activity to zero”.

Take `N[C@@H](CCCCB(O)O)C(=O)O` [ABH, 2(S)-amino-6-boronohexanoic acid]: on human ARGI (HsARGI) [1], the inhibition constant (Ki) is 3.5 µM, the “block of HsARGI activity (in words)” value is “completely blocked” and the inhibition at 40000 µM is more than 50%. Further, in data set [2], the “block of LmARG activity (in words)” value was “completely blocked”, the “Type of Inhibition” value was “Competitive” and the inhibition is more than 50%. Besides, the Ki in data set [2] (Ki vs. LmARG) amounted to 1.3 µM.

Take `OB(O)O` [boric acid]: at human ARGI (HsARGI) [1], the “inhibition of HsARGI” value is more than 50% and the “selective inhibition … over LmARG” value is “preferentially inhibited the HsARGI activity”. The “inhibition of LmARG” value in [2] is more than 50%.

For `Nc1nc2nc(N)[nH]c2c(=O)[nH]1` [8-aminoguanine], the “selective inhibition … over LmARG” value at human ARGI (HsARGI) [1] was “preferentially inhibited the HsARGI activity”. In addition, in [2], the “selective inhibition … over HsARGI” value is recorded as “greater potency toward LmARG”, the “Type of Inhibition” value is on record as “Uncompetitive” and the inhibition is more than 50%. The inhibitory constant (Ki) in data set [2] (Ki vs. LmARG) is less than 2000 µM.

For `NC(CCS)C(=O)O` (racemic) [DL-homocysteine], in data set [2], the “inhibition of LmARG” value is listed as more than 50% and the “selective inhibition … over HsARGI” value is recorded as “greater potency toward LmARG”.

For `NCCCC[C@H](N)C(=O)O` [L-lysine], at human ARGI (HsARGI) [1], the “selective inhibition … over LmARG” value is given as “preferentially inhibited the HsARGI activity” and the inhibition at 40000 µM is more than 50%.

Usually Km stands for the concentration of substrate that gives half-maximal velocity. In the case of “Leishmania mexicana arginase (LmARG) (Leishmania mexicana)”, the Michaelis constant (Km) in the data set with N=C(N)NCCC[C@H](N)C(=O)O is listed as 25 ± 4 mM.
